# Values of other authors, collected in patent US20090318293A1, “AGRICULTURAL COMPOSITION” (PLANT IMPACT PLC, priority 2005, published 2009).
# Tested on: cotyledon growth, chlorophyll biosynthesis and cell elongation
# Settings: on cotyledon growth, chlorophyll biosynthesis and cell elongation in the systems studied
structure (smiles),measurement,value
"Cn1c(=O)c2c(ncn2C)n(C)c1=O [caffeine, 3,7-Dihydro-1,3,7-trimethyl-1H-purine-2,6-dione]",cytokinin-like effect,weak cytokinin-like effect
